Data: ChEMBL document CHEMBL1147799, “An integrated in silico 3D model-driven discovery of a novel, potent, and selective amidosulfonamide 5-HT1A agonist (PRX-00023) for the treatment of anxiety and depression” (J Med Chem, 2006)
Calls of active or inactive are those of the source. No cut-off for these calls is given here.

Assays:
[1] = Binding affinity to chemokine receptor by radioligand binding assay
[2] = Binding affinity to neuropeptide receptor by radioligand binding assay
[3] = target: Adrenergic receptor beta (Homo sapiens, UniProt P08588+P07550+P13945); assay: Binding affinity to beta adrenergic receptor by radioligand binding assay; assay type: protein assay
[4] = target: Muscarinic acetylcholine receptor; assay: Binding affinity to muscarinic receptor by radioligand binding assay; assay type: protein assay
[5] = target: 5-hydroxytryptamine receptor 7 (Homo sapiens, UniProt P34969)
Description: Binding affinity to 5HT7 receptor by radioligand binding assay

[6] = target: 5-hydroxytryptamine receptor 1B (Rattus norvegicus, UniProt P28564); assay: Binding affinity to 5HT1B receptor in rat cerebral cortex by radioligand binding assay; assay type: tissue-based
[7] = Binding affinity to histamine receptor by radioligand binding assay
[8] = target: 5-hydroxytryptamine receptor 2A (Homo sapiens, UniProt P28223)
Description: Binding affinity to 5HT2A receptor by radioligand binding assay

[9] = Binding affinity to chloride channel by radioligand binding assay
[10] = target: GABA-A receptor; anion channel; assay: Binding affinity to GABA receptor by radioligand binding assay; assay type: protein-complex assay
[11] = target: Serotonin 3 receptor (5HT3) (Mus musculus, UniProt Q9JHJ5+P23979); assay: Binding affinity to mouse 5HT3 receptor by radioligand binding assay; assay type: protein assay
[12] = Terminal half life in human; assay type: ADME, organism-based; conditions: in vivo
[13] = target: Cholecystokinin receptor (Homo sapiens, UniProt P32239+P32238); assay: Binding affinity to cholecystokinin receptor by radioligand binding assay; assay type: protein assay
[14] = target: T1, Voltage-gated inwardly rectifying potassium channel KCNH2 (Homo sapiens, UniProt Q12809); assay: Binding affinity to potassium channel by radioligand binding assay
[15] = Protein binding in human serum at 10 uM; assay type: ADME, organism-based; conditions: read-out: PPB (converted)
[16] = target: 5-hydroxytryptamine receptor 2C (Homo sapiens, UniProt P28335); assay: Binding affinity to human 5HT2C receptor by radioligand binding assay
[17] = Binding affinity to vasoactive intestinal peptide receptor by radioligand binding assay
[18] = target: Somatostatin receptor; assay: Binding affinity to somatostatin receptor by radioligand binding assay; assay type: protein assay
[19] = target: Translocator protein (Homo sapiens, UniProt P30536); assay: Binding affinity to benzodiazepine receptor by radioligand binding assay
[20] = Binding affinity to bradykinin receptor by radioligand binding assay
[21] = target: D(2) dopamine receptor (Homo sapiens, UniProt P14416); assay: Binding affinity to D2 receptor by radioligand binding assay
[22] = target: T1, Voltage-gated inwardly rectifying potassium channel KCNH2; assay: Inhibition of hERG potassium channel in HEK293 cells by patch clamp assay
[23] = target: hERG (KCNH2) (Homo sapiens, UniProt Q12809); assay: Inhibition of hERG potassium channel in HEK293 cells by patch clamp assay at 1 uM; conditions: HEK293 cells that express hERG
[24] = Cmax in Sprague-Dawley rat at 3 mg/kg, po; assay type: ADME, organism-based; design: dose 3 mg/kg, route oral; conditions: in vivo
[25] = target: 5-hydroxytryptamine receptor 1A (Rattus norvegicus, UniProt P19327); assay: Binding affinity to 5HT1A receptor in rat cerebral cortex by radioligand binding assay; assay type: tissue-based
[26] = target: 5-hydroxytryptamine receptor 4 (Homo sapiens, UniProt Q13639); assay: Binding affinity to human 5HT4e receptor by radioligand binding assay
[27] = tested on: Mus musculus; assay: Decrease in stress-induced hyperthermia in 129S6/SvEvTac mouse at 20 mg/kg, po; assay type: functional, organism-based; design: dose 20 mg/kg
[28] = target: Angiotensin II receptor (Homo sapiens, UniProt P30556+P50052); assay: Binding affinity to angiotensin2 receptor by radioligand binding assay; assay type: protein assay
[29] = Binding affinity to melanocortin receptor by radioligand binding assay
[30] = Protein binding in human serum at 2 uM; assay type: ADME, organism-based; conditions: read-out: PPB (converted)
[31] = target: Cytochrome P450 1A2 (Homo sapiens, UniProt P05177); assay: Inhibition of human recombinant cytochrome P450 1A2; assay type: ADME; conditions: recombinant enzyme
[32] = target: Cytochrome P450 2C19 (Homo sapiens, UniProt P33261); assay: Inhibition of human recombinant cytochrome P450 2C19; assay type: ADME; conditions: recombinant enzyme
[33] = Toxicity in po dosed Sprague-Dawley rat; assay type: organism-based; conditions: in vivo
[34] = target: Adrenergic receptor alpha-1 (Rattus norvegicus) (UniProt P15823+P23944+P43140); assay: Displacement of [3H]prazosin from Adrenergic alpha-1 receptor in rat cerebral cortex cells at 1 uM; assay type: cell-based
[35] = target: T2, 5-hydroxytryptamine receptor 1A (Homo sapiens, UniProt P08908); assay: Activity against 5HT1A receptor by Gi-[35S]GTP-gamma-S binding assay; assay type: functional
T2 sequence (P08908 whole entry): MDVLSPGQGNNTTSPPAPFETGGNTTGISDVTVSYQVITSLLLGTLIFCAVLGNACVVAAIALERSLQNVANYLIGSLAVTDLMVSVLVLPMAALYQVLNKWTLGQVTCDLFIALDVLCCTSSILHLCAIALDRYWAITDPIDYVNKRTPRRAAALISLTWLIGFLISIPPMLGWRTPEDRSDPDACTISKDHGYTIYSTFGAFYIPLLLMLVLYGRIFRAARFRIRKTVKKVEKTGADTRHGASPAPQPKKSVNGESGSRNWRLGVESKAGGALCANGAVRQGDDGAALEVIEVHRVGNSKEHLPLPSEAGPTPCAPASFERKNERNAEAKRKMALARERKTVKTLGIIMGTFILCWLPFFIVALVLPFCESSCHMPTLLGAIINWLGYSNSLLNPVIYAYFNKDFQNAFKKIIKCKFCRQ

[36] = target: 5-hydroxytryptamine receptor 6 (Homo sapiens, UniProt P50406); assay: Binding affinity to human 5HT6 receptor by radioligand binding assay
[37] = Binding affinity to sodium channel by radioligand binding assay
[38] = target: Sodium-dependent noradrenaline transporter (Homo sapiens, UniProt P23975); assay: Binding affinity to norepinephrine transporter by radioligand binding assay
[39] = Binding affinity to vasopressin receptor by radioligand binding assay
[40] = target: Endothelin receptor, ET-A/ET-B (Homo sapiens, UniProt P24530+P25101); assay: Binding affinity to endothelin receptor by radioligand binding assay; assay type: protein assay
[41] = Binding affinity to galanin receptor by radioligand binding assay
[42] = target: T2, 5-hydroxytryptamine receptor 1A; assay: Displacement of [3H]8-OH-DPAT from human 5HT1A receptor in HEK293 cells
[43] = target: Cytochrome P450 2C9 (Homo sapiens, UniProt P11712); assay: Inhibition of human recombinant cytochrome P450 2C9; assay type: ADME; conditions: recombinant enzyme
[44] = target: Sodium-dependent dopamine transporter (Homo sapiens, UniProt Q01959); assay: Binding affinity to dopamine transporter by radioligand binding assay
[45] = target: Dopamine receptor; assay: Binding affinity to dopamine receptor by radioligand binding assay; assay type: protein assay
[46] = target: 5-hydroxytryptamine receptor 2B (Homo sapiens, UniProt P41595); assay: Binding affinity to 5HT2B receptor by radioligand binding assay
[47] = Binding affinity to neurokinin receptor by radioligand binding assay
[48] = Toxicity in po dosed Beagle dog; assay type: organism-based, Canis lupus familiaris; conditions: in vivo
[49] = organism: Homo sapiens; assay: Transient increase in prolactin level in human serum at greater than 30 mg; assay type: functional, organism-based

T1 sequence (Q12809 whole entry): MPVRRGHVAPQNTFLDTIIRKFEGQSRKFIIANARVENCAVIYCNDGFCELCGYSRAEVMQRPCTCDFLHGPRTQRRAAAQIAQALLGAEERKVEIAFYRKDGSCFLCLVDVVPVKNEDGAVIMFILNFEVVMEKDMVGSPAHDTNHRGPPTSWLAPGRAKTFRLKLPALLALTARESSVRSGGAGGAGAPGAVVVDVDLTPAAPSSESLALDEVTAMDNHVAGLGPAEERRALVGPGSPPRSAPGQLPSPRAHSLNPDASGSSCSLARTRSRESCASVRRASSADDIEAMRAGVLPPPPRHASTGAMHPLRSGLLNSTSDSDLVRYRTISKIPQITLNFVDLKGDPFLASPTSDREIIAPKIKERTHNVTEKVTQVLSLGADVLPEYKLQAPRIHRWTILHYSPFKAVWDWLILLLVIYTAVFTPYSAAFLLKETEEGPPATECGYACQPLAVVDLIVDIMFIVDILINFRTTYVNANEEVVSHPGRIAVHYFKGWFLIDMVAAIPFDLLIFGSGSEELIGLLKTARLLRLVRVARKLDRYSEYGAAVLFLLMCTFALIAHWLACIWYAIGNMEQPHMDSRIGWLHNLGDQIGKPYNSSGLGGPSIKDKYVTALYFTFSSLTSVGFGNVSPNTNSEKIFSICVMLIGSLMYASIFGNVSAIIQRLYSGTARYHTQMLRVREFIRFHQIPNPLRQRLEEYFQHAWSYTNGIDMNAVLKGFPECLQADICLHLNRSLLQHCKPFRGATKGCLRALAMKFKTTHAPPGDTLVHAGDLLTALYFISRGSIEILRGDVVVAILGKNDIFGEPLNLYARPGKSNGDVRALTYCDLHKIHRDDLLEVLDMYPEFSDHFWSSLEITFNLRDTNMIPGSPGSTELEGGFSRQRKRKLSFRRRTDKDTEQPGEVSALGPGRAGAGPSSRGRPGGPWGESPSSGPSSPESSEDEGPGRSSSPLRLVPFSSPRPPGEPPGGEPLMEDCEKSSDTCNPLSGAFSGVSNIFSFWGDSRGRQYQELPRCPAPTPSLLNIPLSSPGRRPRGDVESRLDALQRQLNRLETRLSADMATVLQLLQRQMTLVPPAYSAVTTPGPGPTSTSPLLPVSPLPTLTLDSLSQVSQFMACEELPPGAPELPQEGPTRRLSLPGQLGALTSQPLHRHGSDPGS
5-hydroxytryptamine receptor 2A, sequence (P28223 whole entry): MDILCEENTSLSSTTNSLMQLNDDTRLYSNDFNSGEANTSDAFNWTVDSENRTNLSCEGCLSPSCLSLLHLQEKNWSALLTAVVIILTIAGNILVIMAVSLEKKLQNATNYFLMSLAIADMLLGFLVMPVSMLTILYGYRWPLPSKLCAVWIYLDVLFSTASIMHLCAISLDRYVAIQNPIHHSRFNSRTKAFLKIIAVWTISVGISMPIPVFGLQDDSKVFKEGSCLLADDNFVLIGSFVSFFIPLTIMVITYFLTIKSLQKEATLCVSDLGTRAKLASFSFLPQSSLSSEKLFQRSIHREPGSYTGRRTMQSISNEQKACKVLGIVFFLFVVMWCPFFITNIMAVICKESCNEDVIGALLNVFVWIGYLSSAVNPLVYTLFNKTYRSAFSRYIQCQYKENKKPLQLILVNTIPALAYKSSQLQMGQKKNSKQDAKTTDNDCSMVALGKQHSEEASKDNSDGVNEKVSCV
5-hydroxytryptamine receptor 1B, sequence (P28564 whole entry): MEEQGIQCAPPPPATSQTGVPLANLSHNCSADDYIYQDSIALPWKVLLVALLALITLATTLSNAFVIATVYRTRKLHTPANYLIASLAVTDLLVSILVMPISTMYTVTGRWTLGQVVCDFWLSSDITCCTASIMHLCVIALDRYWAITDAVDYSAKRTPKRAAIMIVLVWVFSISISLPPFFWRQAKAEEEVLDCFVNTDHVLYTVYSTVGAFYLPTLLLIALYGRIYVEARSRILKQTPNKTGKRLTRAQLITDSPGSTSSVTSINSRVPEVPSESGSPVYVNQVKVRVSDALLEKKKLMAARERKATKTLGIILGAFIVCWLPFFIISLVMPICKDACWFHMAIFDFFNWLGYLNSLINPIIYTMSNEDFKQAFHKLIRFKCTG
Sodium-dependent noradrenaline transporter, sequence (P23975 whole entry): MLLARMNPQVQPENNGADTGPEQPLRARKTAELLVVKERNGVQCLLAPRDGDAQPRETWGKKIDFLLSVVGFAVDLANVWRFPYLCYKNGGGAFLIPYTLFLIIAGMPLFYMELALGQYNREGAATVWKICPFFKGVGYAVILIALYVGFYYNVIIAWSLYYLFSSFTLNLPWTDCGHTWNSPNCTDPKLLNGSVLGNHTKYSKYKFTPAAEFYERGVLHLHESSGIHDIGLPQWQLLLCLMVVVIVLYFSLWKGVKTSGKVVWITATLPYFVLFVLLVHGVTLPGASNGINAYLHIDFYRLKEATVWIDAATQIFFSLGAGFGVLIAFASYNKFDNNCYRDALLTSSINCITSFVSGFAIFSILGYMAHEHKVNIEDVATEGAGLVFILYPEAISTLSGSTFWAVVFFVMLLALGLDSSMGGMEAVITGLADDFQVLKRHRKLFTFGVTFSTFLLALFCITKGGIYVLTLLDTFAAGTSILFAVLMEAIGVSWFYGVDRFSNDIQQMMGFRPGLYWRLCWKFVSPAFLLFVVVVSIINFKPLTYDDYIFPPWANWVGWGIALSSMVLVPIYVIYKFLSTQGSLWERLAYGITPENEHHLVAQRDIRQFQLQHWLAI
Cytochrome P450 2C9, sequence (P11712 whole entry): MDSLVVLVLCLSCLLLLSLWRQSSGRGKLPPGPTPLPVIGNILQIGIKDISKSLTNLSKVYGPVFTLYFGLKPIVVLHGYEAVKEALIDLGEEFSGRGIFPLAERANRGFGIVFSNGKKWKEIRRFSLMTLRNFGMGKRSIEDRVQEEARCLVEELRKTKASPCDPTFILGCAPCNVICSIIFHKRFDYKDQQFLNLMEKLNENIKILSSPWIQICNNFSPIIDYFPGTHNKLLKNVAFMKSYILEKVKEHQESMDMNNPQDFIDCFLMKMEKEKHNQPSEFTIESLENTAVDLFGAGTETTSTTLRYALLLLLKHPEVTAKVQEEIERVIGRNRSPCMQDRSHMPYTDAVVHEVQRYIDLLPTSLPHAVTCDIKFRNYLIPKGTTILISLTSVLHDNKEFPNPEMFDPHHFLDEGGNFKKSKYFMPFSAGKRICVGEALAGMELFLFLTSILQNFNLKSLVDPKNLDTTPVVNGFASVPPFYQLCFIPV
5-hydroxytryptamine receptor 1A (Rattus norvegicus, UniProt P19327), sequence (P19327 whole entry): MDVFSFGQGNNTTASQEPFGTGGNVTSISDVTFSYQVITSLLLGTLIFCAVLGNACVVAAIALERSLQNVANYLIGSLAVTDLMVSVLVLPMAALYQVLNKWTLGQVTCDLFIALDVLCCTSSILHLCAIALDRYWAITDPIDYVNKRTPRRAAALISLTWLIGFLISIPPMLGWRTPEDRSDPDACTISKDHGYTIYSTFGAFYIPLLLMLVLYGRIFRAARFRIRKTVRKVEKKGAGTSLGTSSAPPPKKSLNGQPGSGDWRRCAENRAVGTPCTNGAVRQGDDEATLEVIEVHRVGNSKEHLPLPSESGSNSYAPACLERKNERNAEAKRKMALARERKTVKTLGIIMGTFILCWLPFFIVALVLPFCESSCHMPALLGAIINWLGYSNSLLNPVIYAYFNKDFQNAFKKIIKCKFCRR
hERG (KCNH2), sequence (Q12809 whole entry): as the sequence (Q12809 whole entry) above
Translocator protein, sequence (P30536 whole entry): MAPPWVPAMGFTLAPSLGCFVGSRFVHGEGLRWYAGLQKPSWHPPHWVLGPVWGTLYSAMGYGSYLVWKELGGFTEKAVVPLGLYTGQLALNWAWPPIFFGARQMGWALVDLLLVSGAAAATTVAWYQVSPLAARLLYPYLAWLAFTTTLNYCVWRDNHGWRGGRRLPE

CC(=O)Nc1cccc(N2CCN(CCCCNS(=O)(=O)CC3CCCCC3)CC2)c1 [NALUZOTAN]
Ki [1]: > 2 µM
Ki [2]: > 2 µM
Ki [3]: > 2 µM
Ki [4]: > 2 µM
Ki [5]: 0.7 µM
Ki [6]: > 2 µM
Ki [7]: > 2 µM
Ki [8]: > 2 µM
Ki [9]: > 10 µM
Ki [10]: > 2 µM
Ki [11]: > 5 µM
half-life [12]: > 10 h
Ki [13]: > 2 µM
Ki [14]: > 2 µM
fraction unbound at 10 µM [15]: 0.08
Ki [16]: > 5 µM
Ki [17]: > 2 µM
Ki [18]: > 2 µM
Ki [19]: > 2 µM
Ki [20]: > 2 µM
Ki [21]: > 2 µM
IC50 [22]: 3.8 µM
inhibition at 1 µM [23]: 21%
Cmax [24]: 24 ng/mL
Ki [25]: 0.017 µM
Ki [26]: > 5 µM
Activity [27]: Active
Ki [28]: > 2 µM
Ki [29]: > 2 µM
fraction unbound at 2 µM [30]: 0.08
Inhibition [31]: Not Active
Inhibition [32]: Not Active
MTD [33]: 300 mg/kg
Activity [34]: 47%
EC50 [35]: 0.02 µM
Ki [36]: > 5 µM
Ki [37]: > 2 µM
Ki [38]: > 2 µM
Ki [39]: > 2 µM
Ki [40]: > 2 µM
Ki [41]: > 2 µM
Ki [42]: 0.0051 µM
Inhibition [43]: Not Active
Ki [44]: > 2 µM
Ki [45]: > 2 µM
Ki [46]: > 5 µM
Ki [47]: > 2 µM
MTD [48]: 600 mg/kg
Activity [49]: Active
